Reference: ChEMBL document CHEMBL1153947, “Carbonic anhydrase inhibitors. Inhibition of cytosolic isoforms I, II, III, VII and XIII with less investigated inorganic anions” (Bioorg Med Chem Lett, 2009)

What was measured:
Carbonic anhydrase 1 = Carbonic anhydrase 1 (Homo sapiens, UniProt P00915); test: Inhibition of human recombinant carbonic anhydrase 1-catalyzed CO2 hydration by stopped flow assay
Carbonic anhydrase 13 = Carbonic anhydrase 13 (Mus musculus, UniProt Q9D6N1); test: Inhibition of mouse recombinant carbonic anhydrase 13-catalyzed CO2 hydration by stopped flow assay
Sequence of Carbonic anhydrase 13 (Q9D6N1 whole entry): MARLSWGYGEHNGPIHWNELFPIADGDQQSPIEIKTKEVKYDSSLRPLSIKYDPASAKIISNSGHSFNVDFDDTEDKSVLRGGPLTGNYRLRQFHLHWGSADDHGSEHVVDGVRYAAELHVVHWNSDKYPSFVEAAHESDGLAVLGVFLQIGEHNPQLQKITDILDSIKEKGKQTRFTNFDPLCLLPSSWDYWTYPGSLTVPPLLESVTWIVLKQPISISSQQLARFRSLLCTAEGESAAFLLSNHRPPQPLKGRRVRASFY

Carbonic anhydrase 7 = Carbonic anhydrase 7 (Homo sapiens, UniProt P43166); test: Inhibition of human recombinant carbonic anhydrase 7-catalyzed CO2 hydration by stopped flow assay
Sequence of Carbonic anhydrase 7 (P43166 whole entry): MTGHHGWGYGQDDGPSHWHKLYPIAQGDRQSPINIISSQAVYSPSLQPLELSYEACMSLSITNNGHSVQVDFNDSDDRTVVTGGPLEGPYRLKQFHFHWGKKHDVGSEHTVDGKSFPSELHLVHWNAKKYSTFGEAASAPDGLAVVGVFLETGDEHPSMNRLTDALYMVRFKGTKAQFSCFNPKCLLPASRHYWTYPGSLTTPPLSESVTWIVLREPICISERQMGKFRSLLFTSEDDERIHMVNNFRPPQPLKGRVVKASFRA

Carbonic anhydrase 2 = Carbonic anhydrase 2 (Homo sapiens, UniProt P00918); test: Inhibition of human recombinant carbonic anhydrase 2-catalyzed CO2 hydration by stopped flow assay

Sequence of Carbonic anhydrase 1 (P00915 whole entry): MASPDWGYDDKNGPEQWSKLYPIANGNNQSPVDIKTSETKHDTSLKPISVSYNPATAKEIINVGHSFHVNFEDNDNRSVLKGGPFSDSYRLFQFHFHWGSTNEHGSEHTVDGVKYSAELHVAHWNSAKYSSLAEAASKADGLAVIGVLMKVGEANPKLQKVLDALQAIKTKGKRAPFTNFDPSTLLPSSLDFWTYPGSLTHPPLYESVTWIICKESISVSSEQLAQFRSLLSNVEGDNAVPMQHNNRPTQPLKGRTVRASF

CCN(CC)C(=S)S [DITIOCARB SODIUM]
Ki (Carbonic anhydrase 1): 0.79 µM | Ki (Carbonic anhydrase 13): 56 µM | Ki (Carbonic anhydrase 7): 1470 µM

S=C(S)S [SODIUM CARBONOTRITHIOATE]
Ki (Carbonic anhydrase 1): 8.7 µM | Ki (Carbonic anhydrase 13): 430 µM | Ki (Carbonic anhydrase 7): 36200 µM

O=S(=O)(O)NS(=O)(=O)O [SODIUM IMINODISULFONATE]
Ki (Carbonic anhydrase 1): 310 µM | Ki (Carbonic anhydrase 13): 980 µM | Ki (Carbonic anhydrase 7): 39100 µM

O=S(=O)(O)OOS(=O)(=O)O [SODIUM PERSULFATE]
Ki (Carbonic anhydrase 13): 4310 µM | Ki (Carbonic anhydrase 7): 3110 µM

O=P(O)(O)OP(=O)(O)O [SODIUM PYROPHOSPHATE]
Ki (Carbonic anhydrase 1): 25800 µM | Ki (Carbonic anhydrase 13): 730 µM | Ki (Carbonic anhydrase 7): 870 µM

O=S(=O)(O)OS(=O)(=O)O [SODIUM PYROSULFATE]
Ki (Carbonic anhydrase 2): 970 µM | Ki (Carbonic anhydrase 1): 990 µM | Ki (Carbonic anhydrase 13): 710 µM | Ki (Carbonic anhydrase 7): 760 µM

O=[Se](=O)(O)O [SODIUM SELENATE]
Ki (Carbonic anhydrase 1): 118000 µM | Ki (Carbonic anhydrase 13): 484000 µM | Ki (Carbonic anhydrase 7): 215000 µM

N#C[SeH] [SODIUM SELENOCYANATE]
Ki (Carbonic anhydrase 1): 85 µM | Ki (Carbonic anhydrase 13): 26500 µM | Ki (Carbonic anhydrase 7): 1100 µM

O=[Te](=O)(O)O [SODIUM TELLURATE]
Ki (Carbonic anhydrase 1): 660 µM | Ki (Carbonic anhydrase 13): 380 µM | Ki (Carbonic anhydrase 7): 460 µM
